Measured values from patent publication US11498919B2, “Azaindolylpyridone and diazaindolylpyridone compounds” (Sprint Bioscience AB, priority 2017, dated 2022).

Columns and labels:
[1] = system: Human osteosarcoma cells (HOS) stably expressing GFP-LC3; test: High Content Screening Autophagy Assay (GFP-LC3 foci); format: cell-based; conditions: autophagy in HOS cells, activated with KU-0063794 500 nM plus Bafilomycin A1 5 nM, 6 hours, LC3-GFP foci area per cell, read-out: Median IC50 (nM) Cellular assay
Description: Human osteosarcoma cells (HOS) stably expressing a Green Fluorescent Protein (GFP) tagged LC3 (GFP-LC3) were used to determine the inhibitory effect on autophagy of proprietary compounds. For that purpose, autophagy was activated by using the mTOR inhibitor KU-0063794 at 500 nM in the presence of Bafilomycin A1 (Sigma-Aldrich) at 5 nM. Shortly, cells were plated overnight in clear bottom 96-well plates in DMEM—High Modified media (Hi-Clone Cat #SH30285.01). At the start of the experiment, the media was removed and replaced with fresh media containing the mTOR inhibitor, Bafilomycin A1 and the vehicle or a test compound as indicated. After 6 hours the media was removed, cells were washed twice with ice-cold phosphate buffered saline (PBS) and fixed with 4% paraformaldehyde for 20 minutes at room temperature. Then the cells were washed twice with ice-cold PBS before adding Hoechst 33342 at 1 μg/ml in PBS for nuclear staining. After incubation overnight at 4° C., cells were washed once with PBS to remove the excess of dye and 100 μl of PBS was added to each well. Images were acquired at 20× magnification, 6 images per well, using the ImageXpress automated microscope (Molecular Devices Inc.) and analyzed with MetaXpress software to identify LC3-GFP foci. Foci area per cell values were used to generate dose response curves and IC50 values were calculated using the non-linear fitting analysis in GraphPad Prism software. […] The results of the assay are shown in Table 2 (Median IC50 nM HOS-LC3).

[2] = molecular target: Vps34 enzyme (Homo sapiens (Human), UniProt Q8NEB9); test: Vps34 Biochemical Assay (Adapta kinase assay, TR-FRET); conditions: 20 μM ATP and 200 μM PI:PS in substrate mix, 1 h at room temperature, read-out: Median IC50 nM Adapta
Description: Dilution series of compounds of the invention were prepared in DMSO at 100 times the final assay concentration (n1=n0/3 in 10 points). The compounds were further diluted to 4 times the assay concentration in assay buffer (Life technologies buffer Q, PV5125, diluted 5 times supplemented with 2 mM DTT and 2 mM MnCl2). 2.5 μl of the diluted compounds were added to a 384 well assay plate followed by 2.5 μl of 16.5 nM Vps34 enzyme (Life technologies, PV5126). Enzyme and compounds were pre-incubated at rt for 15 min. Then 5 μl of substrate mix containing 20 μM ATP (Life technologies, PV3227) and 200 μM PI:PS substrate (Life technologies, PV5122) in assay buffer was added to the wells containing compound and enzyme. Mixing was performed by pipetting several times. The reaction was incubated at room temperature for 1 h. Then 5 μl stop-detection mix, prepared as described in the Adapta kinase assay kit instructions (Life technologies, PV5099) containing Adapta Eu-anti-ADP antibody (2.3 nM), Alexa Fluor 647 ADP tracer (9 nM) and EDTA (30 mM) in TR-FRET buffer, was added to quench the reaction. Mixing was performed by pipetting several times. The assay plate was then incubated at room temperature for 30 min and read with Artemis micro plate reader. Percent inhibition of the compounds as compared to DMSO treated control samples was calculated. By the use of Dotmatics software compound concentration versus percent inhibition was fitted to generate IC50 values.

Chain of Vps34 enzyme (Q8NEB9 whole entry): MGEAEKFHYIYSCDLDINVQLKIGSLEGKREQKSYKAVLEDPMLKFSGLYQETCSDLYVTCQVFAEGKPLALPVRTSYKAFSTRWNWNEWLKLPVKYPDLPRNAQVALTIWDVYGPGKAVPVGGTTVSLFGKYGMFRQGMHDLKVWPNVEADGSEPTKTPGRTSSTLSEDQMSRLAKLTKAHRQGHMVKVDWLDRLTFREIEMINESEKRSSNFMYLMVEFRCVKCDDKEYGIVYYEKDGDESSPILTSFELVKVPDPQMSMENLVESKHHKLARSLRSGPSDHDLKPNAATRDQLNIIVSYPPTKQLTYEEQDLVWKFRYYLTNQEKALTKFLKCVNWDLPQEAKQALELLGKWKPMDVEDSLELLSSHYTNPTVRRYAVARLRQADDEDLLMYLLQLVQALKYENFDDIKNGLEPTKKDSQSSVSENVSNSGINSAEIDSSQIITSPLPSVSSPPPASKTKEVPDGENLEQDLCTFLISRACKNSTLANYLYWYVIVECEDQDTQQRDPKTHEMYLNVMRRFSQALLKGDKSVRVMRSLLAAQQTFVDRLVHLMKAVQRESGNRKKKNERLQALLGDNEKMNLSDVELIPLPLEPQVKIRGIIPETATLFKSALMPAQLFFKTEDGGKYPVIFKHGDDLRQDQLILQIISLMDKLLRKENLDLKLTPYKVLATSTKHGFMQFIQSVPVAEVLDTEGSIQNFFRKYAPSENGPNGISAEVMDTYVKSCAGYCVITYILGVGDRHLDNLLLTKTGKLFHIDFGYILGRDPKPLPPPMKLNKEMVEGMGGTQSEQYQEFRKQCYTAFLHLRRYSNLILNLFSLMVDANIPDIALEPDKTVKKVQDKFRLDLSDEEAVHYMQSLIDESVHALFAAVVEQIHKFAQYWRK

| IC50 [1] [nM] | IC50 [2] [nM] | Structure (SMILES) |
| --- | --- | --- |
| 62 | < 5 | Cc1cc2c(-c3cc(N4CCCCC4C(F)(F)F)[nH]c(=O)c3)ccnc2[nH]1 (stereo not shown) [Example 36, 4-(2-Methyl-1H-pyrrolo[2,3-b]pyridin-4-yl)-6-[2-(trifluoromethyl)-1-piperidyl]-1H-pyridin-2-one] |
| – | 12 | Cc1cc2c(-c3cc(N4CCOCC4)[nH]c(=O)c3)ccnc2[nH]1 [Example 16, 4-(2-Methyl-1H-pyrrolo[2,3-b]pyridin-4-yl)-6-morpholino-1H-pyridin-2-one] |
| 554 | 24 | Cc1cc2c(-c3cc(-c4cccnc4)[nH]c(=O)c3)ccnc2[nH]1 [Example 12, 4-(2-Methyl-1H-pyrrolo[2,3-b]pyridin-4-yl)-6-(3-pyridyl)-1H-pyridin-2-one] |
| – | < 5 | N#Cc1cc2c(-c3cc(-c4ccccc4C(F)(F)F)[nH]c(=O)c3)ccnc2[nH]1 [Example 80, 4-[2-Oxo-6-[2-(trifluoromethyl)phenyl]-1H-pyridin-4-yl]-1H-pyrrolo[2,3-b]pyridine-2-carbonitrile] |
| – | < 5 | O=c1cc(-c2ccnc3[nH]c(C4CC4)cc23)cc(-c2ccccc2C(F)(F)F)[nH]1 [Example 79, 4-(2-cyclopropyl-1H-pyrrolo[2,3-b]pyridin-4-yl)-6-[2-(trifluoromethyl)phenyl]-1H-pyridin-2-one] |
| 473 | < 5 | O=c1cc(-c2ccnc3[nH]ccc23)cc(N2CCOCC2C(F)(F)F)[nH]1 (stereo not shown) [Example 42, 4-(1H-pyrrolo[2,3-b]pyridin-4-yl)-6-[3-(trifluoromethyl)morpholin-4-yl]-1H-pyridin-2-one] |
| – | < 5 | Cc1ccc(-c2cc3c(-c4cc(N5CCOCC5C(F)(F)F)[nH]c(=O)c4)ccnc3[nH]2)s1 (stereo not shown) [Example 48, 4-[2-(5-Methyl-2-thienyl)-1H-pyrrolo[2,3-b]pyridin-4-yl]-6-[3-(trifluoromethyl)morpholin-4-yl]-1H-pyridin-2-one] |
| 89 | < 5 | CCS(=O)(=O)N1CCN(c2cc(-c3ccnc4[nH]c(C#N)cc34)cc(=O)[nH]2)C(C(F)(F)F)C1 (stereo not shown) [Example 74, 4-[2-[4-Ethylsulfonyl-2-(trifluoromethyl)piperazin-1-yl]-6-oxo-1H-pyridin-4-yl]-1H-pyrrolo[2,3-b]pyridine-2-carbonitrile] |
| – | < 5 | CS(=O)(=O)N1CCN(c2cc(-c3ccnc4[nH]ncc34)cc(=O)[nH]2)C(C(F)(F)F)C1 (stereo not shown) [Example 88, 6-[4-Methylsulfonyl-2-(trifluoromethyl)piperazin-1-yl]-4-(1H-pyrazolo[3,4-b]pyridin-4-yl)-1H-pyridin-2-one] |
| 62 | < 5 | O=c1cc(-c2ccnc3[nH]ncc23)cc(N2CCCCC2C(F)(F)F)[nH]1 (stereo not shown) [Example 49, 4-(1H-pyrazolo[3,4-b]pyridin-4-yl)-6-[2-(trifluoromethyl)-1-piperidyl]-1H-pyridin-2-one] |
| 2570 | 20 | Cc1cnccc1-c1cc(-c2ccnc3[nH]ccc23)cc(=O)[nH]1 [Example 6, 6-(3-Methyl-4-pyridyl)-4-(1H-pyrrolo[2,3-b]pyridin-4-yl)-1H-pyridin-2-one] |
| – | 34 | O=c1cc(-c2ccnc3[nH]c(-c4cccc(C(F)(F)F)c4)cc23)cc(N2CCOCC2C(F)(F)F)[nH]1 (stereo not shown) [Example 45, 6-[3-(Trifluoromethyl)morpholin-4-yl]-4-[2-[3-(trifluoromethyl)phenyl]-1H-pyrrolo[2,3-b]pyridin-4-yl]-1H-pyridin-2-one] |
| 28 | < 5 | CCS(=O)(=O)N1CCN(c2cc(-c3ccnc4[nH]c(C)cc34)cc(=O)[nH]2)C(C(F)(F)F)C1 (stereo not shown) [Example 73, 6-[4-Ethylsulfonyl-2-(trifluoromethyl)piperazin-1-yl]-4-(2-methyl-1H-pyrrolo[2,3-b]pyridin-4-yl)-1H-pyridin-2-one] |
| 54 | < 5 | Cc1cc2c(-c3cc(-c4ccccc4Cl)[nH]c(=O)c3)ccnc2[nH]1 [Example 29, 6-(2-Chlorophenyl)-4-(2-methyl-1H-pyrrolo[2,3-b]pyridin-4-yl)-1H-pyridin-2-one] |
| 308 | < 5 | CCS(=O)(=O)N1CCN(c2cc(-c3ccnc4[nH]ccc34)cc(=O)[nH]2)C(C(F)(F)F)C1 (stereo not shown) [Example 71, 6-[4-Ethylsulfonyl-2-(trifluoromethyl)piperazin-1-yl]-4-(1H-pyrrolo[2,3-b]pyridin-4-yl)-1H-pyridin-2-one] |
| 665 | < 5 | O=c1cc(-c2ccnc3[nH]ccc23)cc(-c2ccccc2C(F)(F)F)[nH]1 [Example 4, 4-(1H-pyrrolo[2,3-b]pyridin-4-yl)-6-[2-(trifluoromethyl)phenyl]-1H-pyridin-2-one] |
| 145 | < 5 | O=c1cc(-c2ccnc3[nH]ccc23)cc(N2CCCCC2C(F)(F)F)[nH]1 (stereo not shown) [Example 37, 4-(1H-pyrrolo[2,3-b]pyridin-4-yl)-6-[2-(trifluoromethyl)-1-piperidyl]-1H-pyridin-2-one] |
| 485 | < 5 | O=c1cc(-c2ccnc3[nH]ncc23)cc(-c2ccccc2C(F)(F)F)[nH]1 [Example 82, 4-(1H-pyrazolo[3,4-b]pyridin-4-yl)-6-[2-(trifluoromethyl)phenyl]-1H-pyridin-2-one] |
| 16 | < 5 | O=c1cc(-c2ccnc3[nH]c(-c4cccnc4)cc23)cc(-c2ccccc2Cl)[nH]1 [Example 27, 6-(2-Chlorophenyl)-4-[2-(3-pyridyl)-1H-pyrrolo[2,3-b]pyridin-4-yl]-1H-pyridin-2-one] |
| 44 | 8 | O=c1cc(-c2ccnc3[nH]c(-c4cnco4)cc23)cc(-c2ccccc2Cl)[nH]1 [Example 23, 6-(2-Chlorophenyl)-4-(2-oxazol-5-yl-1H-pyrrolo[2,3-b]pyridin-4-yl)-1H-pyridin-2-one] |
| – | < 5 | O=c1cc(-c2ccnc3[nH]c(-c4ccc(C(F)(F)F)nc4)cc23)cc(N2CCCCC2C(F)(F)F)[nH]1 (stereo not shown) [Example 55, 6-[2-(Trifluoromethyl)-1-piperidyl]-4-[2-[6-(trifluoromethyl)-3-pyridyl]-1H-pyrrolo[2,3-b]pyridin-4-yl]-1H-pyridin-2-one] |
| 176 | < 5 | O=c1cc(-c2ccnc3[nH]ccc23)cc(N2CCN(S(=O)(=O)Cc3ccc(F)cc3)CC2C(F)(F)F)[nH]1 (stereo not shown) [Example 65, 6-[4-[(4-fluorophenyl)methylsulfonyl]-2-(trifluoromethyl)piperazin-1-yl]-4-(1H-pyrrolo[2,3-b]pyridin-4-yl)-1H-pyridin-2-one] |
| – | < 5 | O=c1cc(-c2ccnc3[nH]c(-c4cnc(C(F)(F)F)nc4)cc23)cc(N2CCCCC2C(F)(F)F)[nH]1 (stereo not shown) [Example 52, 6-[2-(Trifluoromethyl)-1-piperidyl]-4-[2-[2-(trifluoromethyl)pyrimidin-5-yl]-1H-pyrrolo[2,3-b]pyridin-4-yl]-1H-pyridin-2-one] |
| 366 | 10 | O=c1cc(-c2ccnc3[nH]ccc23)cc(N2CCCC2c2ccccc2)[nH]1 (stereo not shown) [Example 8, 6-(2-phenylpyrrolidin-1-yl)-4-(1H-pyrrolo[2,3-b]pyridin-4-yl)-1H-pyridin-2-one] |
| 19 | < 5 | CCS(=O)(=O)N1CCN(c2cc(-c3ccnc4[nH]c(C5CC5)cc34)cc(=O)[nH]2)C(C(F)(F)F)C1 (stereo not shown) [Example 72, 4-(2-Cyclopropyl-1H-pyrrolo[2,3-b]pyridin-4-yl)-6-[4-ethylsulfonyl-2-(trifluoromethyl)piperazin-1-yl]-1H-pyridin-2-one] |
| – | 7 | O=c1cc(-c2ccnc3[nH]c(-c4cncc(C(F)(F)F)c4)cc23)cc(N2CCCCC2C(F)(F)F)[nH]1 (stereo not shown) [Example 58, 6-[2-(Trifluoromethyl)-1-piperidyl]-4-[2-[5-(trifluoromethyl)-3-pyridyl]-1H-pyrrolo[2,3-b]pyridin-4-yl]-1H-pyridin-2-one] |
